# Source: PubChem BioAssay AID330 (DTP/NCI, 2004)
# Several values for one entry are separate records, joined by “and”; a condition that tells them apart may be missing. Equal entries are not always repeated. Inconclusive results and toxic doses are left out. Square brackets hold non-standard residues; d marks the D form. Peptide text beside a SMILES is read from it. * marks the point of attachment. Cbz = O=C(OCc1ccccc1)*; Nva = CCC[CH](N)C(=O)O
# System: P388 leukemia ip, CD2F1 mice, survival T/C
# Assay: NCI In Vivo Anticancer Drug Screen. Data for tumor model P388 Leukemia (intraperitoneal) in CD2F1 (CDF1) mice
# Settings: endpoint: median survival time, higher = longer survival
# Procedure, shortened: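 Mice carrying the transplanted tumor received test compound or vehicle. Survival was recorded in each group, and the value is the treated-group measurement divided by that of the vehicle-treated control group.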
# [1] = dose: 50.0 mg/kg/injection, schedule: Q01DX009 (ip), vehicle: saline with Tween-80
# [2] = dose: 100.0 mg/kg/injection, schedule: Q01DX009 (ip), vehicle: saline with Tween-80
# [3] = dose: 100.0 mg/kg/injection, schedule: Q01DX009 (ip), vehicle: saline
# [4] = dose: 200.0 mg/kg/injection, schedule: Q01DX009 (ip), vehicle: saline with Tween-80
# [5] = dose: 200.0 mg/kg/injection, schedule: Q01DX009 (ip), vehicle: saline
# [6] = dose: 50.0 mg/kg/injection, schedule: Q01DX005 (ip), vehicle: Klucel (hydroxypropylcellulose) (HPC)
# [7] = dose: 100.0 mg/kg/injection, schedule: Q01DX005 (ip), vehicle: Klucel (hydroxypropylcellulose) (HPC)
# [8] = dose: 200.0 mg/kg/injection, schedule: Q01DX005 (ip), vehicle: Klucel (hydroxypropylcellulose) (HPC)
# [9] = dose: 12.5 mg/kg/injection, schedule: Q01DX009 (ip), vehicle: saline
# [10] = dose: 25.0 mg/kg/injection, schedule: Q01DX009 (ip), vehicle: saline
# [11] = dose: 50.0 mg/kg/injection, schedule: Q01DX009 (ip), vehicle: saline
# [12] = dose: 60.0 mg/kg/injection, schedule: Q01DX005 (ip), vehicle: saline with Tween-80
# [13] = dose: 120.0 mg/kg/injection, schedule: Q01DX005 (ip), vehicle: saline with Tween-80
# [14] = dose: 240.0 mg/kg/injection, schedule: Q01DX005 (ip), vehicle: saline with Tween-80
# [15] = dose: 6.25 mg/kg/injection, schedule: Q01DX009 (ip), vehicle: Klucel (hydroxypropylcellulose) (HPC)
# [16] = dose: 12.5 mg/kg/injection, schedule: Q01DX009 (ip), vehicle: Klucel (hydroxypropylcellulose) (HPC)
# [17] = dose: 25.0 mg/kg/injection, schedule: Q01DX009 (ip), vehicle: Klucel (hydroxypropylcellulose) (HPC)
# [18] = dose: 100.0 mg/kg/injection, schedule: Q01DX001 (ip), vehicle: Klucel (hydroxypropylcellulose) (HPC)
# [19] = dose: 200.0 mg/kg/injection, schedule: Q01DX001 (ip), vehicle: Klucel (hydroxypropylcellulose) (HPC)
smiles,measurement,setting,value
COc1ccc(CCN)cc1OC,T/C,[1],100 % of control
same,T/C,[2],100 % of control
same,T/C,[3],108 % of control
same,T/C,[4],100 % of control
same,T/C,[5],106 % of control
O=C(N1CCCCC1Cc1ccccc1)C(Cl)(Cl)Cl (centres undefined),T/C,"dose: 30.0 mg/kg/injection, schedule: Q01DX005 (ip), vehicle: Klucel (hydroxypropylcellulose) (HPC)",101 % of control
same,T/C,"dose: 60.0 mg/kg/injection, schedule: Q01DX005 (ip), vehicle: Klucel (hydroxypropylcellulose) (HPC)",101 % of control
N#CC1=Cc2ccccc2OC1,T/C,"dose: 100.0 mg/kg/injection, schedule: Q04DX003 (ip), vehicle: Klucel (hydroxypropylcellulose) (HPC)",108 % of control
same,T/C,"dose: 200.0 mg/kg/injection, schedule: Q04DX003 (ip), vehicle: Klucel (hydroxypropylcellulose) (HPC)",108 % of control
same,T/C,"dose: 400.0 mg/kg/injection, schedule: Q04DX003 (ip), vehicle: Klucel (hydroxypropylcellulose) (HPC)",105 % of control
CCCCN(CCCC)CCCN(CCCOS(C)(=O)=O)CCCOS(C)(=O)=O,T/C,"dose: 20.0 mg/kg/injection, schedule: Q01DX009 (ip), vehicle: saline",181 % of control and 185 % of control
same,T/C,"dose: 40.0 mg/kg/injection, schedule: Q01DX009 (ip), vehicle: saline",231 % of control and 236 % of control
COc1nc(N)nc2c1CSc1ccccc1-2,T/C,[6],97 % of control
same,T/C,[7],97 % of control
same,T/C,[8],90 % of control
O=C(O)C1=C(/C=C/Cl)CC1,T/C,[1],102 % of control
same,T/C,[2],96 % of control
same,T/C,[4],99 % of control
COc1ccc2c(C)cc(OC)nc2c1,T/C,[1],94 % of control
same,T/C,[2],91 % of control
same,T/C,[4],97 % of control
CCC1(CC)C(=O)ON(C(C)(C)N2OC(=O)C(CC)(CC)C2=O)C1=O,T/C,[6],102 % of control
same,T/C,[7],104 % of control
same,T/C,[8],96 % of control
CCSC(C#N)C(C)=O (centres undefined),T/C,[9],106 % of control
same,T/C,[10],97 % of control
same,T/C,[1],100 % of control
same,T/C,[11],100 % of control
CCCCCCCCCCCC(=O)OOC(C)(C)C,T/C,[12],100 % of control
same,T/C,[13],102 % of control
same,T/C,[14],97 % of control
CC(=O)C(O)CC(=O)C(O)CC(=O)C(O)N1C(=O)C=CC1=O (centres undefined),T/C,[15],93 % of control
same,T/C,[16],95 % of control
same,T/C,[17],97 % of control
COC(=O)C(=O)c1c(C(=O)OC)nc2nnc(N)n2c1-c1ccc(Cl)c(Cl)c1,T/C,[12],96 % of control
same,T/C,[13],101 % of control
same,T/C,[14],104 % of control
O=S1(=O)C(c2ccccc2)=C(O)c2cc3ccccc3nc21,T/C,[1],107 % of control
same,T/C,[2],112 % of control
same,T/C,[4],107 % of control
CC(C)(C)Oc1ccc(CC(NC(=O)OCC2c3ccccc3-c3ccccc32)C(=O)O)cc1 (centres undefined),T/C,"dose: 25.0 mg/kg/injection, schedule: Q01DX005 (ip), vehicle: Klucel (hydroxypropylcellulose) (HPC)",107 % of control
same,T/C,[6],107 % of control and 109 % of control
same,T/C,[7],120 % of control
same,T/C,[8],104 % of control and 120 % of control
BrCCC[n+]1ccc2ccccc2c1-c1nccc2ccccc12,T/C,"dose: 3.12 mg/kg/injection, schedule: Q01DX001 (ip), vehicle: saline",104 % of control
same,T/C,"dose: 6.25 mg/kg/injection, schedule: Q01DX001 (ip), vehicle: saline",98 % of control
same,T/C,"dose: 12.5 mg/kg/injection, schedule: Q01DX001 (ip), vehicle: saline",101 % of control and 115 % of control
CC(=O)C1(C(C)=O)OC2c3ccccc3C=CN2C=C1C=O (centres undefined),T/C,[12],110 % of control
same,T/C,[13],106 % of control
same,T/C,[14],106 % of control
NC(=S)c1ccccc1[N+](=O)[O-],T/C,"dose: 25.0 mg/kg/injection, schedule: Q01DX001 (ip), vehicle: saline",104 % of control
same,T/C,"dose: 25.0 mg/kg/injection, schedule: Q01DX001 (ip), vehicle: suspension in saline",101 % of control
same,T/C,"dose: 50.0 mg/kg/injection, schedule: Q01DX001 (ip), vehicle: saline",104 % of control
same,T/C,"dose: 50.0 mg/kg/injection, schedule: Q01DX001 (ip), vehicle: suspension in saline",100 % of control
same,T/C,"dose: 100.0 mg/kg/injection, schedule: Q01DX001 (ip), vehicle: saline",101 % of control and 104 % of control
same,T/C,"dose: 100.0 mg/kg/injection, schedule: Q01DX001 (ip), vehicle: suspension in saline",102 % of control
same,T/C,"dose: 200.0 mg/kg/injection, schedule: Q01DX001 (ip), vehicle: suspension in saline",101 % of control
COSOC,T/C,"dose: 7.5 mg/kg/injection, schedule: Q04DX003 (ip), vehicle: Klucel (hydroxypropylcellulose) (HPC)",105 % of control
same,T/C,"dose: 15.0 mg/kg/injection, schedule: Q04DX003 (ip), vehicle: Klucel (hydroxypropylcellulose) (HPC)",104 % of control
same,T/C,"dose: 30.0 mg/kg/injection, schedule: Q04DX003 (ip), vehicle: Klucel (hydroxypropylcellulose) (HPC)",98 % of control
O=C1c2ccccc2C(=O)C23OC12C1C=CC3CC1 (centres undefined),T/C,"dose: 50.0 mg/kg/injection, schedule: Q01DX001 (ip), vehicle: Klucel (hydroxypropylcellulose) (HPC)",94 % of control
same,T/C,[18],91 % of control
same,T/C,[19],93 % of control
Nc1cc(-c2ccc(Br)cc2)nn1-c1nnc(-c2ccccc2)c(-c2ccccc2)n1,T/C,"dose: 50.0 mg/kg/injection, schedule: Q01DX005 (ip), vehicle: saline with Tween-80",101 % of control
same,T/C,"dose: 100.0 mg/kg/injection, schedule: Q01DX005 (ip), vehicle: saline with Tween-80",93 % of control
same,T/C,"dose: 200.0 mg/kg/injection, schedule: Q01DX005 (ip), vehicle: saline with Tween-80",92 % of control
CC(C)N=C(N)/N=C(\N)Nc1ccc2ccc3ccccc3c2c1,T/C,[15],105 % of control
same,T/C,[16],113 % of control
same,T/C,[17],103 % of control
O=C(O)CNC(=O)C(F)(F)F,T/C,[1],93 % of control
same,T/C,[2],91 % of control
same,T/C,[4],95 % of control
O=N[O-].O=N[O-].O=[N+]([O-])O.[Co+3].[NH-]CC[NH-].[NH-]CC[NH-],T/C,[9],104 % of control
same,T/C,[10],98 % of control
same,T/C,[11],100 % of control and 98 % of control
same,T/C,[3],100 % of control
CC1(C)CC(OP(=O)(OC2CC(C)(C)N(O)C(C)(C)C2)N2CC2)CC(C)(C)N1O,T/C,[18],100 % of control
same,T/C,[19],97 % of control
same,T/C,"dose: 400.0 mg/kg/injection, schedule: Q01DX001 (ip), vehicle: Klucel (hydroxypropylcellulose) (HPC)",104 % of control
NC(Cc1c[nH]c2ccccc12)C(=O)NCCS(=O)(=O)O (centres undefined),T/C,[12],102 % of control
same,T/C,[13],104 % of control
same,T/C,[14],99 % of control
C=CCc1cn(C2CC(OC(=O)c3ccc(Cl)cc3)C(COC(=O)c3ccc(Cl)cc3)O2)c(=O)[nH]c1=O (centres undefined),T/C,[6],98 % of control
same,T/C,[7],98 % of control
same,T/C,[8],91 % of control
COc1ccc(/C=C/C(=O)C(C)(C)CN(C)CCN(C)C)cc1,T/C,[12],100 % of control
same,T/C,[13],109 % of control
O=[N+]([O-])c1ccc(C(c2ccccc2)c2ccccc2)cc1,T/C,[4],90 % of control
CCCCCCC(=O)/C=C/c1cccc(OCc2ccc([N+](=O)[O-])cc2)c1,T/C,"dose: 12.5 mg/kg/injection, schedule: Q01DX009 (ip), vehicle: saline with Tween-80",86 % of control
same,T/C,"dose: 25.0 mg/kg/injection, schedule: Q01DX009 (ip), vehicle: saline with Tween-80",89 % of control
same,T/C,[1],87 % of control and 91 % of control
same,T/C,[4],88 % of control
CCN(CC)CCNC(=O)c1noc2cc([N+](=O)[O-])ccc12,T/C,"dose: 12.5 mg/kg/injection, schedule: Q01DX005 (ip), vehicle: saline",109 % of control
same,T/C,"dose: 25.0 mg/kg/injection, schedule: Q01DX005 (ip), vehicle: saline",115 % of control
same,T/C,"dose: 50.0 mg/kg/injection, schedule: Q01DX005 (ip), vehicle: saline",103 % of control and 97 % of control
NC(=O)N/N=C1\CCCCC12CCCC2,T/C,"dose: 100.0 mg/kg/injection, schedule: Q04DX002 (ip), vehicle: saline with Tween-80",102 % of control
same,T/C,"dose: 200.0 mg/kg/injection, schedule: Q04DX002 (ip), vehicle: saline with Tween-80",102 % of control
same,T/C,"dose: 400.0 mg/kg/injection, schedule: Q04DX002 (ip), vehicle: saline with Tween-80",100 % of control
CCCC(NC(=O)OCc1ccccc1)C(=O)NC(CO)C(=O)O (centres undefined) (Cbz-[Nva]-Ser-OH; configuration not given here),T/C,[6],94 % of control
same,T/C,[7],108 % of control
same,T/C,[8],94 % of control
COCCOC(=O)NCP(Cl)(CNC(=O)OCCOC)(CNC(=O)OCCOC)CNC(=O)OCCOC,T/C,[11],100 % of control
same,T/C,[3],99 % of control
same,T/C,[5],105 % of control
